Literature values as cited in paper PMC3667888 (Channels, 2013).

Tested on: Kv1 channels
Conditions: applied externally; cited from earlier work

**Q.** Which “inhibition of Kv1 channels by anandamide” value does the source give for CCCCC/C=C\C/C=C\C/C=C\C/C=C\CCCC(=O)NCCO [AEA, anandamide] here?
**A.** The value was “not inhibited”.
